In experiment [1] the test system is L. major promastigotes. Briefly: Potency assessment against Leishmania major promastigotes (growth, cell counting). Format: cell-based. The settings on record: for EC50 / IC50: Leishmania major; for EC50: promastigotes, average of three replicates, read-out: Effective concentration (EC50) L. major; for activity against L. major promastigotes in words: highest concentration tested; for IC50: Table 2B, read-out: L. major Promastigote IC50, growth inhibition.

Experiment [2] deals with L. donovani axenic amastigotes. Briefly: Potency assessment against Leishmania donovani axenic amastigotes (growth, cell counting). Format: cell-based. The settings on record: for EC50 / IC50: Leishmania donovani; for EC50: axenic amastigotes, average of three replicates, read-out: Effective concentration (EC50) L. donovani axenic amastigotes; for activity against L. donovani axenic amastigotes in words: highest concentration tested; for IC50: Table 2B, read-out: L. donovani Axenic Amastigote IC50, growth inhibition.

In experiment [3] the test system is T. cruzi trypomastigotes. Briefly: T. cruzi intracellular replication in NIH/3T3 host cells (β-galactosidase, CPRG). Format: cell-based, Trypanosoma cruzi. The settings on record: Trypanosoma cruzi; for EC50: NIH3T3, 96 h, trypomastigotes with 3T3 host cells, four days, three replicates within ±10.2%, read-out: Effective concentration (EC50) T. cruzi; for IC50: NIH3T3, Table 2B, read-out: T. Cruzi IC50, growth inhibition.

Experiment [4] has as its system T. brucei brucei Lister 427. Briefly: Potency assessment against T. brucei brucei Lister 427 bloodstream form (AlamarBlue, 72 h). Format: cell-based, Trypanosoma brucei brucei. Conditions: Trypanosoma brucei. Background: Resazurin is reduced to fluorescent resorufin, in cell work by metabolically active cells.
The subject of experiment [5] is human cells. Conditions: literature, Table 1; read-out: Inhibition of Cell Growth EC50; cited from earlier work.
For experiment [6], the target named is mTOR (Homo sapiens, UniProt P42345). The settings on record: cited from earlier work; for mTOR IC50 in words: mammalian cells / literature.
The target in experiment [7] is PI3K p110α (Homo sapiens, UniProt P42336). Conditions: human enzyme, Table 1; cited from earlier work.
For experiment [8], the system named is L. donovani promastigotes. Briefly: Potency assessment against Leishmania donovani promastigotes (growth, cell counting). Format: cell-based. The settings on record: Leishmania donovani; for IC50: Table 2B, read-out: L. donovani Promastigote IC50, growth inhibition; for EC50: promastigotes, average of three replicates, read-out: Effective concentration (EC50) L. donovani promastigotes.

In experiment [9] the test system is T. b. rhodesiense. Briefly: Potency assessment against T. b. rhodesiense EATRO3 bloodstream form (AlamarBlue, 72 h). Format: cell-based, Trypanosoma brucei rhodesiense. Conditions: Trypanosoma brucei, RHODESIENSE; for IC50: Table 2B, read-out: T. brucei rhod IC50, growth inhibition.
For experiment [10], the system named is T. brucei brucei Lister 427 bloodstream cells. Briefly: Morphological and cell cycle alterations in T. brucei (flow cytometry). Format: cell-based, Trypanosoma brucei brucei. Conditions: 16 h, WYE-354 2 μM; for effect on cellular DNA content / cell cycle, T. b. brucei: PI-103 1 μM, Pp242 2 μM, NVP-BEZ235 100 nM. As to the method:
Flow cytometry was used to assess cell size and DNA content, to reveal a G1 arrest and inhibition of protein synthesis or G2 arrest and multinucleated cells. […]. After permeabilization with […], saponin (0.5 mg/mL final concentration), the culture was RNAse treated for 30 minutes (10 μg/mL final concentration) and stained with 20 μg/mL propidium iodide immediately before its acquisition in a FACscan cytometer. Cells incubated with equivalent concentration of drug solvent (DMSO) were included in each experiment as control population.
On the technique in general: In flow cytometry, cells or beads pass a laser one at a time.

The subject of experiment [11] is L. major promastigotes. Briefly: Cell size and DNA content analysis in Leishmania (flow cytometry). Format: cell-based, Leishmania major. On the procedure: L. major log phase promastigotes were inoculated at a concentration of 10^6 cells/ml into media with compounds as indicated, and incubated overnight with varying drug concentrations to assess cell size and DNA content. For cell size, forward scatter of live promastigotes was measured by a FACS flow cytometer (Becton Dickinson), utilizing dye exclusion with 5 μg/ml propidium iodide (PI) to gate for live cells. DNA content was determined by flow cytometry using fixed and permeabilized L. major stained with PI as previously described, but reducing the incubation time with PI and RNase A from 1 hour to 30 minutes. Histogram analysis was performed using CellQuest 3.1 software (BD Bioscience).

For experiment [12], the system named is Leishmania. Briefly: Leishmania growth inhibition summarised across both species and stages. The settings on record: range over L. major and L. donovani, promastigotes and amastigotes. Format: cell-based.
The mark [13] stands for this setting: bloodstream form, average of three replicates, read-out: Effective concentration (EC50) T. b. brucei.
[14] abbreviates: bloodstream form, average of three replicates, read-out: Effective concentration (EC50) T. b. rhodesiense.
[15] abbreviates: overnight, PI-103 4 μM, WYE-354 25 μM, NVP-BEZ235 0.5 μM (EC60-EC90).

As a reminder, the IC50 is the point on the concentration scale where inhibition reaches its midpoint.

Read-outs that look alike come from different tables or passages of the source.

Sequence of PI3K p110α (P42336 whole entry): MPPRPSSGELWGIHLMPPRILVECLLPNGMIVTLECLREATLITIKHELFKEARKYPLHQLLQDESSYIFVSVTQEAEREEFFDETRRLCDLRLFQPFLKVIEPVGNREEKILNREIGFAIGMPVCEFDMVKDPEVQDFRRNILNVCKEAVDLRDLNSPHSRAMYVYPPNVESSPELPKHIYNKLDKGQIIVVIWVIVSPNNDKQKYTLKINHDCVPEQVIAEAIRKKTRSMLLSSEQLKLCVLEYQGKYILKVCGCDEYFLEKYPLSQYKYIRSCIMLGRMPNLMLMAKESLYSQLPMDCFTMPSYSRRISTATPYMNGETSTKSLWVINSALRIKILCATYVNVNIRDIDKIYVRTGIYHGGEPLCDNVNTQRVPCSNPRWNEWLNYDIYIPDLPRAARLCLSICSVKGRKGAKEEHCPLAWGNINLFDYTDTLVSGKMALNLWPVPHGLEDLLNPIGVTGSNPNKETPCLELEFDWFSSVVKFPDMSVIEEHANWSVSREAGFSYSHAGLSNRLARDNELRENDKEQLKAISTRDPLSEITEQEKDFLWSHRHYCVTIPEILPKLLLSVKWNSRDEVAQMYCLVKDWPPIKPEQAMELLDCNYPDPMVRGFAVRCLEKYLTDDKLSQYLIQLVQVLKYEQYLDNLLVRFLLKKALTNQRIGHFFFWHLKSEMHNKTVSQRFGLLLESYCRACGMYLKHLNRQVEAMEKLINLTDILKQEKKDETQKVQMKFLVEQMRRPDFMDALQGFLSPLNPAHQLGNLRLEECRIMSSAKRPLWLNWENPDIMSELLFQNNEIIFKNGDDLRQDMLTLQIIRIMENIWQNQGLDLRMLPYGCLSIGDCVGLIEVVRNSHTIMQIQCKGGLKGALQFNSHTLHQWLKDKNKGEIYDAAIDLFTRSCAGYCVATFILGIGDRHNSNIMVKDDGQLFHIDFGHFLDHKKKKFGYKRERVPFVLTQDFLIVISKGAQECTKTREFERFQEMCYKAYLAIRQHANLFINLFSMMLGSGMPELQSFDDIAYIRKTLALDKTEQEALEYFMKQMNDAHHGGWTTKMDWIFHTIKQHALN
Sequence of PI3K p110α (P27986 whole entry partner): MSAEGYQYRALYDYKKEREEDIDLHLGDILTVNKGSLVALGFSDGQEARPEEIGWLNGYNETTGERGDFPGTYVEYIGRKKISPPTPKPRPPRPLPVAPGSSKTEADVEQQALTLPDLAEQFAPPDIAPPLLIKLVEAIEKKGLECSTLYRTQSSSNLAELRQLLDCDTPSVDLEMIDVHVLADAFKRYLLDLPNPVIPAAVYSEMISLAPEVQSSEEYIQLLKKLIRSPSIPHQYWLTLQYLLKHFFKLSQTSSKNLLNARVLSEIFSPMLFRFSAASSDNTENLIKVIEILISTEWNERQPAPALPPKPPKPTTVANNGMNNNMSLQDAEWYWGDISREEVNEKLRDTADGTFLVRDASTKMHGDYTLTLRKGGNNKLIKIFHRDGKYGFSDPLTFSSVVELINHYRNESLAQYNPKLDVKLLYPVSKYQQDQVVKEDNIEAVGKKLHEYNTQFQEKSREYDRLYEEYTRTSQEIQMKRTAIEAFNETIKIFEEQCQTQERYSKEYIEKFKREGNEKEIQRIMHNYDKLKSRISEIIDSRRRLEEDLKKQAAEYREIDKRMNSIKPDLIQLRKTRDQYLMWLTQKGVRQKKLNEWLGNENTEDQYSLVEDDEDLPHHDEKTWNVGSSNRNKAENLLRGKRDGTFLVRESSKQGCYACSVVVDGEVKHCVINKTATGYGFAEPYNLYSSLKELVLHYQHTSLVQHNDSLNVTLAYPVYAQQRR

Regarding `O=c1cc(N2CCOCC2)nc2c3ccccc3ccn12` [Compound 401, 2-(morpholin-1-yl)pyrimido[2,1-alpha]isoquinolin-4-one], the EC50 in [1] was > 25 µM; in experiment [2], > 5 µM; in experiment [3], > 10 µM; in [4] (setting [13]), > 10 µM; in experiment [5], 1 µM. The “activity against L. major promastigotes in words” value in [1] is “inactive”. Also, the “activity against L. donovani axenic amastigotes in words” value in experiment [2] is “inactive”. Moreover, the “mTOR IC50 in words” value in [6] is given as “low micromolar concentrations”. In addition, the IC50 in [7] is > 100 µM.

`COc1ccc(-c2ccc3c(N4CCOCC4)nc(N4C[C@@H](C)O[C@@H](C)C4)nc3n2)cc1CO` [Ku-0063794]: the EC50 in experiment [1] was > 25 µM; in experiment [2] it was > 5 µM; in [3], > 10 µM; in experiment [4] (setting [13]), 0.89 ± 0.14 µM; in experiment [5], 0.03 µM. Further, in experiment [1], the “activity against L. major promastigotes in words” value was “inactive”. The “activity against L. donovani axenic amastigotes in words” value in experiment [2] was “inactive”.

As to `O=c1cc(N2CCOCC2)oc2c(-c3ccccc3)cccc12` [LY294002, 2-(4-morpholinyl)-8-phenyl-4H-1-benzopyran-4-one], the EC50 in experiment [1] was > 25 µM; in experiment [2], > 5 µM; in experiment [3], > 50 µM; in experiment [4] (setting [13]), > 2 µM. In addition, in [1], the “activity against L. major promastigotes in words” value is “inactive”. Further, the “activity against L. donovani axenic amastigotes in words” value in experiment [2] was “inactive”.

For `O=c1cc(N2CCNCC2)oc2c(-c3ccccc3)cccc12` [LY303511, 2-piperazinyl-8-phenyl-4H-1-benzopyran-4-one], the EC50 in [1] was > 25 µM; in experiment [2], > 5 µM; in experiment [3], > 10 µM; in [4] (setting [13]) it was > 2 µM. Further, the “activity against L. major promastigotes in words” value in experiment [1] was “inactive”. Further, the “activity against L. donovani axenic amastigotes in words” value in experiment [2] was “inactive”.

For `Oc1ccccc1-c1nc(N2CCOCC2)c2cnn(C3CCN(Cc4ccccc4)CC3)c2n1` [NEU-00000231], the IC50 in experiment [1] was 2.78 µM; in experiment [8] it was 8.01 µM; in experiment [2], 3.02 µM; in experiment [9] it was 2.23 µM.

In the case of `c1ccc(CN2CCC(n3ncc4c(N5CCOCC5)nc(-c5ccncc5)nc43)CC2)cc1` [NEU-00000232], the IC50 is 6.54 µM in [1], 8.06 µM in experiment [8], 2.43 µM in [2] and 3.05 µM in experiment [9].

Turning to `Nc1ccc(-c2nc(N3CCOCC3)c3cnn(C4CCN(Cc5ccccc5)CC4)c3n2)cc1` [NEU-00000233], the IC50 in experiment [1] is < 25 µM; in experiment [8], ~25 µM; in experiment [9], 3.7 µM.

Consider `CC(C)(C)OC(=O)Nc1ccc(-c2nc(N3CCOCC3)c3cnn(C4CCN(Cc5ccccc5)CC4)c3n2)cc1` [NEU-00000234], for which the 50% inhibitory concentration (IC50) in experiment [1] was determined as 5.49 µM; in [8] it was 6.34 µM; in experiment [2], 6.9 µM; in [9], 2.19 µM.

As for `COc1cccc(-c2nc(N3CCOCC3)c3oc4ncccc4c3n2)c1` [NEU-0000288], the IC50 in experiment [1] is 4.07 µM; in experiment [2] it was ~20 µM; in experiment [3], 3.7 µM.

For the molecule `COc1cccc(-c2nc(N3CCCCC3)c3oc4ncccc4c3n2)c1` [NEU-0000289], the IC50 in experiment [1] is 7.65 µM; in experiment [2], ~20 µM; in experiment [3] it was 3.9 µM.

Turning to `c1ccc(-c2nc(N3CCOCC3)c3oc4ncccc4c3n2)cc1` [NEU-0000290], the figures for the IC50 in experiment [1], in experiment [2] and in experiment [3] were > 20 µM, > 20 µM and 1.5 µM, respectively.

Regarding `c1ccc(-c2nc(N3CCCCC3)c3oc4ncccc4c3n2)cc1` [NEU-0000291], the IC50 is > 10 µM in experiment [1], > 10 µM in [2] and 12 µM in [3].

In the case of `CCOCCNc1nc(-c2ccccc2)nc2c1oc1ncccc12` [NEU-0000292], the IC50 in [1] was 4 µM; in experiment [2], 12.5 µM; in experiment [3], > 50 µM.

As to `CCOCCNc1nc(-c2cccc(OC)c2)nc2c1oc1ncccc12` [NEU-0000361], the IC50 in experiment [3] is > 50 µM; in [9], > 5 µM.

With `CCOCCNc1nc(-c2cccc(O)c2)nc2c1oc1ncccc12` [NEU-0000362], the IC50 is > 50 µM in experiment [3] and > 1 µM in experiment [9].

For `CCOc1ccccc1-c1nc(N2CCOCC2)c2oc3ncccc3c2n1` [NEU-0000363], the IC50 in [3] was > 50 µM; in experiment [9], > 5 µM.

For `CCOc1ccccc1-c1nc(N2CCCCC2)c2oc3ncccc3c2n1` [NEU-0000364], the IC50 in experiment [3] was > 50 µM; in experiment [9], > 5 µM.

Take `COc1ccc(-c2nc(N3CCOCC3)c3oc4ncccc4c3n2)cc1` [NEU-0000365]: the IC50 was > 50 µM in experiment [3] and > 5 µM in [9].

Take `Oc1cccc(-c2nc(N3CCOCC3)c3oc4ncccc4c3n2)c1` [PI-103]: the EC50 in experiment [1] was 0.32 ± 0.16 µM; in experiment [8], 1.05 ± 0.28 µM; in experiment [2] it was 0.62 ± 0.41 µM; in experiment [3], > 25 µM; in experiment [4] (setting [13]) it was 0.214 ± 0.036 µM; in experiment [4] (read-out: activity against T. b. brucei cultures) it was 0.2 µM. Further, the EC50 is 0.105 ± 0.01 µM in experiment [9] (setting [14]); 0.1 µM in experiment [9] (read-out: activity against T. b. rhodesiense cultures); 0.32 to 1.05 µM in experiment [12] (read-out: inhibition of Leishmania across both species and stages); 0.5 µM in experiment [5]. The “effect on cellular DNA content / cell cycle, T. b. brucei” value in experiment [10] is recorded as “G1 arrest”. Further, in experiment [11] (setting [15]), the “effect on cell size and DNA content, L. major promastigotes” value (“effect on cell size and DNA content” for short) is “G1 arrest and a decrease in cell size”.

Consider `CC(C)n1nc(-c2cc3cc(O)ccc3[nH]2)c2c(N)ncnc21` [Pp242], for which the “effect on cellular DNA content / cell cycle, T. b. brucei” value in experiment [10] is reported as “G1 arrest”. Also, the “effect on cell size and DNA content” value in experiment [11] (higher concentrations of Pp242) is “G2 arrest and increase in cell size”; in [11] (lower concentrations of Pp242), “decrease in cell size and a G1 arrest”.

Turning to `COC(=O)Nc1ccc(-c2nc(N3CCOCC3)c3cnn(C4CCN(C(=O)OC)CC4)c3n2)cc1` [WYE-354], the EC50 was 4.1 ± 0.3 µM in [1]; 5.95 ± 0.84 µM in experiment [8]; 6.1 ± 1.73 µM in [2]; > 10 µM in experiment [3]; 0.58 ± 0.26 µM in [4] (setting [13]); 0.78 ± 0.08 µM in [9] (setting [14]). The EC50 in experiment [12] (read-out: activity against Leishmania across both species and stages) was 4 to 6 µM; in experiment [5], 0.03 µM. Further, in [10], the “effect on cellular DNA content / cell cycle, T. b. brucei” value is “no significant variations in cell cycle”. For the same molecule, in [10], the “effect on cell size, T. b. brucei” value was “small but noticeable reduction in cell size”. In addition, the “effect on cell size and DNA content” value in experiment [11] (setting [15]) is “G1 arrest and a decrease in cell size”. The IC50 in experiment [6] (human enzyme, Table 1) is 0.004 µM; in experiment [7], 1 µM. Further, the “mTOR IC50 in words” value in experiment [6] is “low nanomolar”.

Values taken from patent US20130296316A1, “Antiparasitic Agents Based On mTOR Inhibitors” (priority 2010, published 2013).
